In patent US20260248820A1, “USES OF HYDROGENATED CANNABIDIOL (H4CBD) AND ADVANCED METABOLIC SYNDROME” (The Regents of the University of California, priority 2022, published 2026):
“Also recorded” adds a separate entry of the source.

Key:
[1] = test system: Otsuka Long-Evans Tokushima Fatty (OLETF) rat; assay: Morphometrical measurements (body mass, abdominal fat, food and water intake, activity) in advanced MetS rats; assay type: in vivo
Excerpt: Animals—The Otsuka Long-Evans Tokushima Fatty (OLETF) rat is a monogenic model of diet-induced obesity accelerated by a mutation in the CCK receptor. […] At >40 weeks of age, OLETF rats suffer from severe metabolic dysfunction and therefore serve as a model of aged, severe MetS.
(§1) Male lean Long Evan's Tokushima Otsuka (LETO) rats and obese Otsuka Long Evans Tokushima Fatty (OLETF) rats (Japan SLC Inc., Hamamatsu, Japan), both 14 weeks of age were assigned to the following groups (n=8/group): (1) vehicle-dosed LETO (LETO), (2) vehicle-dosed OLETF (OLETF), and (3) H4CBD-treated (200 mg/kg/day×4 weeks) OLETF (H4CBD). Rats were maintained in a specific pathogen-free, climate-controlled facility on a 12-hour light: dark cycle (07:00-19:00 and 19:00-07:00, respectively). All animals had free access to water and were fed rat chow (Teklad Global; fat 9.0%; carbohydrate 44.9%; protein 19.0%) ad libitum. Treatment intervention was initiated at 41 weeks of age. Phenotypic data (i.e. body mass, food intake) was collected daily for all animals.
Purified H4CBD (>99%) was suspended in food grade sesame oil and administered by oral gavage at a dose of 200 mg/kg.
(§2) Tissue Collection—After the 4-week study and 3 days following the OGTT, animals were fasted overnight and tissues were collected the following morning.
as §1, with “Animals—Male” for “Male”, “facility at the University of California, Merced” for “facility”, “age.” for “age. Phenotypic data (i.e. body mass, food intake) was collected daily for all animals.”
Body Mass (BM), Water, and Food Intake—BM was measured daily to calculate the appropriate drug and vehicle dose. Water, urine and food were measured once every 24 hours throughout the study.
(§3) Telemeter Implantation—At 16 weeks, OLETF rats (n=5) were implanted with DSI telemeters (HD-S10) in the abdominal cavity to measure systolic blood pressure. […] Activity was measured every hour for 15 minutes for the duration of the study. Data were analyzed using A.R.T. software (DSI, St. Paul, MN).
Drug Preparation and Administration—Purified H4CBD (>99%) was suspended in sesame oil and administered by oral gavage at a dose of 200 mg/kg.
(§4) Tissue Collection—After the 4-week study period, animals were fasted overnight, and tissues were collected at sacrifice the following morning. BM was recorded before animals were decapitated and trunk blood was collected.

[2] = test system: Otsuka Long-Evans Tokushima Fatty (OLETF) rat; assay: End of study fasting blood/plasma measurements (glucose, hormones, lipids, RAAS peptides); assay type: in vivo; parameters: Plasma AngII higher than OLETF control / Plasma Ang 1-7 higher than OLETF control / Plasma aldosterone higher than OLETF control / Reduction of fasting insulin to glucagon ratio compared to OLETF / Reduction of circulating adiponectin compared to OLETF / Reduction of leptin compared to OLETF: concentration or dose not given beside the values
Excerpt: as §2
Statistics—All values are represented as mean #standard error mean (SEM) unless otherwise indicated. Means were compared by one-way ANOVA followed by Tukey's honest significant difference or unpaired, one-tailed t-test to assess significant differences among groups. Means and regressions were considered significant at p<0.05. Outliers were detected by ROUT (Q=1.0%) and removed; however, it should be noted that this was necessary for only 12 occurrences. All statistical procedures, including Pearson r correlations, were performed using GraphPad Prism 9.3.1 (GraphPad Software, Inc., San Diego, CA, USA).
as §4
Plasma Analysis—Plasma concentrations of adiponectin (Millipore Sigma; EZRADP-62K), aldosterone (R&D Systems; KGE016), angiotensin 1-7 (Phoenix Pharmaceuticals; EKE-002-01), angiotensin II (Phoenix Pharmaceuticals; EK-002-12CE), corticosterone (R&D Systems; KGE009), ghrelin (Sigma Aldrich; RAB0207), glucagon (Crystal Chemicals; 81519), leptin (Millipore Sigma; EZRL-83K), non-esterified fatty acid (NEFA) (Wako Chemicals) and triglycerides (Cayman Chemical; 10010303) were measured in fasted, end of study plasma samples. All samples were analyzed in duplicate and run in a single assay with intra-assay and percent CV of <10% for all assays.

[3] = test system: Otsuka Long-Evans Tokushima Fatty (OLETF) rat; assay: Systolic blood pressure by DSI radiotelemetry; assay type: in vivo; settings: for Average increase of systolic blood pressure versus non-treated OLETF: after the 7th day of the dose regimen
Description: as §3

[4] = test system: endocannabinoid receptors; settings: cited from earlier work
[5] = OLETF rats, 200 mg/kg oral, 4 weeks, p<0.05
[6] = average between day 10 and day 30
[7] = by day 13 through the end of the study
[8] = H4CBD-treated OLETF rats, end of study fasting, mean ± SEM
[9] = H4CBD-treated OLETF rats, end of study, mean ± SEM

CCCCCc1cc(O)c(C2CC(C)CCC2C(C)C)c(O)c1 (stereo not shown) [H4CBD, 2-(2-isopropyl-5-methylcyclohexyl)-5-pentylbenzene-1,3-diol]
Activity score relative to OLETF control ([1]; DSI HD-S10 telemeter, H4CBD n=3, OLETF n=2, p=0.0985, not significant): nearly doubled
Body mass (g) ([1]; H4CBD-treated OLETF rats, 200 mg/kg oral gavage, 4 weeks, mean ± SEM, n = 8): 516 ± 21^^# g
Final, absolute food intake ([1]; H4CBD-treated OLETF rats, 200 mg/kg oral, 4 weeks, average of 3 days, mean ± SEM): 36 ± 2 g
Relative total fat (g/100 g BM) ([1]; H4CBD-treated OLETF rats, 200 mg/kg oral, 4 weeks, epi.+retro., mean ± SEM): 7.8 ± 1.1 g/100 g BM
Relative epi. fat (g/100 g BM) ([1]; H4CBD-treated OLETF rats, 200 mg/kg oral, 4 weeks, epidydimal, mean ± SEM): 1.2 ± 0.1^^# g/100 g BM
Relative final food intake (g/100 g BM) ([1]; H4CBD-treated OLETF rats, 200 mg/kg oral, 4 weeks, mean ± SEM): 6.7 ± 0.4 g/100 g BM
Relative retro. fat (g/100 g BM) ([1]; H4CBD-treated OLETF rats, 200 mg/kg oral, 4 weeks, retroperitoneal, mean ± SEM): 6.6 ± 0.9 g/100 g BM
Initial, absolute food inake ([1]; H4CBD-treated OLETF rats, average of 3 days, mean ± SEM): 34 ± 2 g
Reduction of relative combined (total) adipose compared to OLETF ([1]; OLETF rats, 200 mg/kg oral, 4 weeks): 25%
Change in food consumption compared to OLETF ([1]; OLETF rats, 200 mg/kg oral, 4 weeks (Table 1)): not associated with a change in food consumption
Effect on body mass (BM) ([1]; OLETF rats, 200 mg/kg oral, 4 weeks, compared with vehicle LETO, 200 mg/kg): reduced BM in OLETF to LETO levels within the first week; also recorded: reduced BM to vehicle-treated LETO levels
Reduction of relative epidydimal fat compared to OLETF control [1, 5]: 35%
Reduction of relative retroperitoneal fat compared to OLETF control [1, 5]: 24%
BM of vehicle-treated OLETF higher than H4CBD-treated OLETF ([1]; OLETF rats, 200 mg/kg oral, after first week (day 10-30), p<0.05): 15%
Increased relative food consumption compared to OLETF control [1, 6]: 24%
Increased relative food intake consumption compared to LETO [1, 6]: 74%
Water intake higher than LETO [1, 7]: > 600%
Water intake higher than OLETF control [1, 7]: 90%
Fasting blood glucose higher than LETO ([2]; 45 weeks of age, p<0.0001): 2.2 fold
Fasting blood glucose higher than OLETF ([2]; 45 weeks of age, p<0.01): 56%
Glucose:Insulin (mmol/μIU × 10^4) [2, 8]: 10.9 ± 1.1^ mmol/μIU × 10^4
Insulin:Glucagon (μIU/pg) [2, 8]: 0.6 ± 0.0^ μIU/pg
Fasting glucagon [2, 9]: 19.4 ± 9.4 pg/mL
Fasting insulin (μIU/mL) [2, 9]: 13.9 ± 0.4^# μIU/mL
Fasting blood glucose (mmol/L) ([2]; H4CBD-treated OLETF rats, end of study, mean ± SEM, n = 8): 15.8 ± 1.9^†£ mmol/L
Fasted plasma NEFA ([2]; LETO, OLETF, H4CBD): not different among groups
Increase of fasting plasma insulin over OLETF ([2]; end of study): 10%
Plasma glucagon, OLETF versus H4CBD ([2]; end of study fasting): not different
Plasma Ang 1-7 higher than OLETF control ([2]; end of study plasma): 26%
Plasma AngII higher than OLETF control ([2]; end of study plasma): 24%
Plasma aldosterone higher than OLETF control ([2]; end of study plasma, p=0.052): 150%
Plasma corticosterone ([2]; fasting plasma, LETO, OLETF, H4CBD): comparable amongst the groups
Plasma ghrelin greater than the other groups ([2]; fasting plasma, p<0.01 vs OLETF, p<0.05 vs LETO): 75%
Reduction of circulating adiponectin compared to OLETF ([2]; fasting plasma, p<0.05): 40%
Reduction of leptin compared to OLETF ([2]; fasting plasma, p<0.05): 47%
Leptin:adiponectin ratio ([2]; fasting plasma, ratio 30% lower in OLETF than LETO): did not modulate the ratio further
Fasted plasma TG ([2]; p<0.0001 OLETF vs. H4CBD, TG 147% higher in OLETF than LETO): reduced fasted plasma TG to LETO control levels
Increase of fasting glucose to insulin ratio compared to OLETF ([2]; p<0.05): 47%
Reduction of fasting insulin to glucagon ratio compared to OLETF ([2]; p<0.05): 64%
Systolic blood pressure, treated vs non-treated OLETF ([3]; 4 weeks telemetry): No significant difference; also recorded: did not reduce SBP
Average increase of systolic blood pressure versus non-treated OLETF [3]: 4%
Average increase of systolic blood pressure versus non-treated OLETF ([3]; H4CBD n=3, OLETF n=2): 6.5 mmHg
Affinity for the endocannabinoid receptors responsible for cannabis intoxication [4]: little affinity
